Source: patent US4616003A, “N^6 -dihydroxypropyladenosines” (Warner-Lambert Company, priority 1985, dated 1986)
Like-named read-outs stand apart in the source and are kept apart here. One block for each compound: values may come before it.

Assays:
Swiss-Webster male mice [1] = assay: Mouse Activity and Screen Test (MAST): screen test failure; type: in vivo; conditions: 1 hour prior to testing
Protocol: Nine unfasted Swiss-Webster male mice weighing 20-30 g are equally divided into three groups for each drug dose to be tested. That is, data for each dose level was generated by three separate groups of three mice each. A minimum of three dose levels (10, 30, and 100 mg/kg) are tested for each drug. Treatments are administered intraperitoneally one hour prior to testing. All dosages are calculated as parent compound and given in volumes of 10 ml/kg. Compounds are dissolved or suspended in 0.2% Methocel. Control animals are injected with Methocel. Testing: A two part testing procedure is started one hour postinjection. First, the screen test (ST) is performed (see Pharmac. Biochem. Behav. 6, 351-353, 1977). Briefly this test consists of placing mice on individual wire screens which are then rotated 180 degrees at the start of a 60 second observation period. The number of mice falling off the inverted screen is recorded. Data: The data obtained from the screen test are expressed as percent of mice falling off the screen. Data derived from locomotor activity of drug treated mice are compared to the activity of vehicle treated animals and are expressed as percent inhibition of spontaneous locomotion. All percentages reported for inhibition of locomotion (LI) are based upon data accumulated for one hour. Both phases of testing are graded: A=60-100%; C=31-59%; and N=0-30%. An overall dose rating is obtained by the following criteria: […]

adenosine A2 receptor = target: T1, adenosine A2 receptor (Rattus norvegicus, UniProt P30543); assay: Adenosine A2 receptor binding (RBA-2), displacement of [3H]NECA
T1 construct: Brains were thawed and then kept on ice while the striata were dissected out; tissue Pel-Freez (Rogers, Ark.); host or cells: rat striatum (Sprague-Dawley brains; Long-Evans gave essentially identical results)
Protocol: Brains from 200-500 g mixed sex Sprague-Dawley rats were purchased from Pel-Freez (Rogers, Ark.). […] Brains were thawed and then kept on ice while the striata were dissected out. […] The suspension was centrifuged at 50,000 xg for ten minutes, the supernatant discarded, the pellet resuspended in 10 vol ice-cold Tris as above, recentrifuged, resuspended at 1 g/5 ml, and stored in plastic vials at -70° C. […] When needed, tissue was thawed at room temperature, disrupted in a Polytron, and kept on ice until used.
All incubations were for 60 minutes at 25° C. in 12×75 mm glass tubes containing 1 ml Tris with 5 mg original tissue weight of rat weight of rat striatal membranes, 4 nM [^3 H]-N-ethyl adenosine-5'-carboxamide ([^3 H]NECA), 50 nM N^6 -cyclopentyladenosine (to eliminate A1 receptor binding), 10 mM MgCl2, 0.1 units/ml of adenosine deaminase and 1% dimethylsulfoxide. N^6 -Cyclopentyladenosine was dissolved at 10 mM in 0.02N HCl and diluted in Tris. […] Test compounds were dissolved at 10 mM in dimethylsulfoxide on the same day as the experiment, and diluted in dimethylsulfoxide to 100× the final incubation concentration. […] [^3 H]NECA was diluted to 40 nM in Tris. The membrane suspension (5 mg/0.79 ml) contained sufficient MgCl2 and adenosine deaminase to give 10 mM and 0.1 units/ml, respectively, final concentration in the incubation. […] After all additions, the rack of tubes was vortexed, and the tubes were then incubated for 60 min at 25° C. in a shaking water bath. The rack of tubes was vortexed an additional time halfway through the incubation.
Incubations were terminated by filtration through 2.4 cm GF/B filters under reduced pressure. Each tube was filtered as follows: the contents of the tube were poured onto the filter, 4 ml of ice-cold Tris were added to the tube and the contents poured onto the filter, and the filter was washed twice with 4 ml of ice-cold Tris. The filtration was complete in about twelve seconds.
Nonspecific binding was defined as binding in the presence of 100 μM N^6 -cyclopentyladenosine, and specific binding was defined as total binding minus nonspecific binding. The IC50 was calculated by weighted nonlinear least squares curve-fitting to the mass-action equation. [formula] where Y is cpm bound
T is cpm total binding without drug
S is cpm specific binding without drug
D is the concentration of drug and
K is the IC50 of the drug
Weighting factors were calculated under the assumption that the standard deviation was proportional to the predicted value of Y. Nonspecific binding was treated as a very large (infinite) concentration of drug in the computer analysis.

Swiss-Webster male mice [2] = assay: Mouse Activity and Screen Test (MAST): inhibition of spontaneous locomotor activity; type: in vivo; conditions: 1 hour prior to testing
Protocol: Nine unfasted Swiss-Webster male mice weighing 20-30 g are equally divided into three groups for each drug dose to be tested. That is, data for each dose level was generated by three separate groups of three mice each. A minimum of three dose levels (10, 30, and 100 mg/kg) are tested for each drug. Treatments are administered intraperitoneally one hour prior to testing. All dosages are calculated as parent compound and given in volumes of 10 ml/kg. Compounds are dissolved or suspended in 0.2% Methocel. Control animals are injected with Methocel. Immediately following the screen test, the final phase of testing is initiated by placing each group of three mice in one actophotometer (Life Sciences, 22, 1067-1076, 1978). The actophotometer consists of a cylindrical chamber whose center is occupied by another cylinder which contains the illumination for six photocells located on the perimeter of the chamber. Six light-beam interruptions equal one count. Locomotor activity is recorded by computer at ten minute intervals for 60 minutes. Data: The data obtained from the screen test are expressed as percent of mice falling off the screen. Data derived from locomotor activity of drug treated mice are compared to the activity of vehicle treated animals and are expressed as percent inhibition of spontaneous locomotion. All percentages reported for inhibition of locomotion (LI) are based upon data accumulated for one hour. Both phases of testing are graded: A=60-100%; C=31-59%; and N=0-30%. An overall dose rating is obtained by the following criteria: […]

adenosine A1 receptor = target: T2, adenosine A1 receptor (Rattus norvegicus, UniProt P25099); assay: Adenosine A1 receptor binding (RBA-1), displacement of [3H]-CHA
T2 construct: Whole brain minus cerebellum and brainstem from male Long Evans rats (150-200 g) was homogenized; from tissue; host or cells: rat whole brain minus cerebellum and brainstem, male Long Evans
T2 sequence (P25099 1-326): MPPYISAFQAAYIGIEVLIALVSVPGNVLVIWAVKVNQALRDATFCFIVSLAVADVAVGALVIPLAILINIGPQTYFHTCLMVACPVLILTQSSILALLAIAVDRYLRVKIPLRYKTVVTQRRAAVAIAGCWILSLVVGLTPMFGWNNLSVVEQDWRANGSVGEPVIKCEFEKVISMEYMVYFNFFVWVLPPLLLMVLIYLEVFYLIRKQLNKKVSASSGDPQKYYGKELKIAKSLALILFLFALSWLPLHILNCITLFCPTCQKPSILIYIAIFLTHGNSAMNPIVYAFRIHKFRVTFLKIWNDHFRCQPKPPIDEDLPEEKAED
Protocol: Whole brain minus cerebellum and brainstem from male Long Evans rats (150-200 g) was homogenized in 30 volumes of ice-cold 0.05M Tris-HCl buffer pH 7.7 using a Brinkman Polytron PT-10, (setting number 6 for 20 seconds) and centrifuged for ten minutes at 20,000×g (Sorvall RC-2), 4° C. The supernatant was discarded, and the pellet was resuspended and centrifuged as before. The pellet was resuspended in 20 ml Tris-HCl buffer containing two International Units/ml of adenosine deaminase (Sigma type III from calf intestinal mucosa), incubated at 37° C. for 30 minutes, then subsequently at 0° C. for ten minutes. The homogenate was again centrifuged, and the final pellet was resuspended in ice-cold 0.05M Tris-HCl buffer pH 7.7 to a concentration of 20 mg/ml original wet tissue weight and used immediately.
Tissue homogenate (10 mg/ml) was incubated in 0.05M Tris-HCl buffer pH 7.7 containing 1.0 nM [^3 H]-N^6 -cyclohexyladenosine [^3 H]-CHA) with or without test agents in triplicate for one hour at 25° C. Incubation volume was 2 ml. Unbound [^3 H]-CHA was separated by rapid filtration under reduced pressure through Whatman glass fiber (GF/B) filters. The filters were rinsed three times with 5 ml of ice cold 0.05M Tris-HCl buffer pH 7.7. The radio-labeled ligand retained on the filter was measured by liquid scintillation spectrophotometry after shaking the filters for one hour or longer on a mechanical shaker in 10 ml of Beckman Ready-Solv HP scintillation cocktail.
Nonspecific binding was defined as the binding which occurred in the presence of 1 mM theophylline. […] The Scatchard plot was calculated by linear regression of the line obtained by plotting the amount of radioligand bound (pmoles/gram of tissue) versus [formula] Since the amount of radioligand bound was a small fraction of the total amount added, free radioligand was defined as the concentration (nM) of radioligand added to the incubation mixture. The Hill coefficient was calculated by linear regression of the line obtained by plotting the log of the bound radioligand vs the log of the [formula] The maximal number of binding sites (Bmax) was calculated from the Scatchard plot.

[3] = 1.0 nM [3H]-CHA, rat whole brain minus cerebellum and brainstem, read-out: RBA-1 (IC50, adenosine A1 receptor affinity)

T1 sequence (P30543 whole entry): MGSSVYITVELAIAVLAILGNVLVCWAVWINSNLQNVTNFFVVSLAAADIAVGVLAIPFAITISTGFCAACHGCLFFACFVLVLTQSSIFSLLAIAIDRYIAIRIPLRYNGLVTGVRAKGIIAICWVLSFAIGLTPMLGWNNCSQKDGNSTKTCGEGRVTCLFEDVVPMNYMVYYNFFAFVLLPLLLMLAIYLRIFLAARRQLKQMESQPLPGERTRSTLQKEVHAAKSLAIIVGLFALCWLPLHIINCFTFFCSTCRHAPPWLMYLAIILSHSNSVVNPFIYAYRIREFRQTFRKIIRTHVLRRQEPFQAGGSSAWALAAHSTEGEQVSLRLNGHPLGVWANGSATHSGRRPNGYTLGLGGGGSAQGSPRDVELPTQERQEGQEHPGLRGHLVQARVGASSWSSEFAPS

Structure (SMILES): OC[C@H](O)CNc1ncnc2c1ncn2[C@@H]1O[C@H](CO)[C@@H](O)[C@H]1O [Example 2, (R)-N^6-[2,3-Dihydroxypropyl]adenosine]
Screen Test Failure (Swiss-Webster male mice [1]; 10 mg/kg i.p.): 100% | Screen Test Failure (Swiss-Webster male mice [1]; 30 mg/kg i.p.): 100% | Screen Test Failure (Swiss-Webster male mice [1]; 100 mg/kg i.p.): 100% | IC50 (adenosine A2 receptor): 11 µM | Inhibition of Mouse Locomotor Activity (Swiss-Webster male mice [2]; 10 mg/kg i.p.): 100% | Inhibition of Mouse Locomotor Activity (Swiss-Webster male mice [2]; 30 mg/kg i.p.): 100% | Inhibition of Mouse Locomotor Activity (Swiss-Webster male mice [2]; 100 mg/kg i.p.): 100% | IC50 (adenosine A1 receptor): 0.0078 µM

IC50 (adenosine A2 receptor; 4 nM [3H]NECA, 50 nM N6-cyclopentyladenosine, rat striatal membranes, read-out: RBA-2 (IC50, adenosine A2 receptor affinity)): 20 µM | IC50 (adenosine A1 receptor; [3]): 0.94 µM
Structure (SMILES): CC1(C)OC[C@H](CNc2ncnc3c2ncn3[C@@H]2O[C@H](CO)[C@@H](O)[C@H]2O)O1 [Example 6, (S)-N^6-[2,3-Dihydroxypropylisopropylidene]adenosine]
Screen Test Failure (Swiss-Webster male mice [1]; 3.0 mg/kg i.p.): 0% | Screen Test Failure (Swiss-Webster male mice [1]; 10 mg/kg i.p.): 0% | Screen Test Failure (Swiss-Webster male mice [1]; 30 mg/kg i.p.): 0% | Inhibition of Mouse Locomotor Activity (Swiss-Webster male mice [2]; 3.0 mg/kg i.p.): 26% | Inhibition of Mouse Locomotor Activity (Swiss-Webster male mice [2]; 10 mg/kg i.p.): 47% | Inhibition of Mouse Locomotor Activity (Swiss-Webster male mice [2]; 30 mg/kg i.p.): 71%

inhibition at 100 µM (adenosine A2 receptor; at 1 × 10^-4 M, read-out: RBA-2 Inhib): 23% | IC50 (adenosine A1 receptor; [3]): 8.8 µM
Structure (SMILES): C[C@H]1O[C@@H](n2cnc3c(NCC4COC(C)(C)O4)ncnc32)[C@H](O)[C@@H]1O (stereo partly drawn) [Example 7, (R,S)-N^6-[2,3-Dihydroxypropyl-isopropylidine]-5'-deoxyadenosine]
Screen Test Failure (Swiss-Webster male mice [1]; 3.0 mg/kg i.p.): 11% | Screen Test Failure (Swiss-Webster male mice [1]; 10 mg/kg i.p.): 0% | Screen Test Failure (Swiss-Webster male mice [1]; 30 mg/kg i.p.): 0% | Inhibition of Mouse Locomotor Activity (Swiss-Webster male mice [2]; 3.0 mg/kg i.p.): 13% | Inhibition of Mouse Locomotor Activity (Swiss-Webster male mice [2]; 10 mg/kg i.p.): 18% | Inhibition of Mouse Locomotor Activity (Swiss-Webster male mice [2]; 30 mg/kg i.p.): 69%

Structure (SMILES): CC(C)CC(=O)OCC(CNc1ncnc2c1ncn2[C@@H]1O[C@H](COC(=O)CC(C)C)[C@@H](OC(=O)CC(C)C)[C@H]1OC(=O)CC(C)C)OC(=O)CC(C)C (stereo partly drawn) [Example 11, N-6[2,3-Dihydroxypropyl-2,3-di-O-isovaleroyl]-2',3',5'-tri-O-isovaleroyl adenosine]
Screen Test Failure (Swiss-Webster male mice [1]; 3.0 mg/kg i.p.): 22% | Screen Test Failure (Swiss-Webster male mice [1]; 10 mg/kg i.p.): 55% | Screen Test Failure (Swiss-Webster male mice [1]; 30 mg/kg i.p.): 100% | Inhibition of Mouse Locomotor Activity (Swiss-Webster male mice [2]; 3.0 mg/kg i.p.): 59% | Inhibition of Mouse Locomotor Activity (Swiss-Webster male mice [2]; 10 mg/kg i.p.): 91% | Inhibition of Mouse Locomotor Activity (Swiss-Webster male mice [2]; 30 mg/kg i.p.): 79%
